Data: PMC6896446, “Design, synthesis and molecular modelling studies of some pyrazole derivatives as carbonic anhydrase inhibitors” (Journal of Enzyme Inhibition and Medicinal Chemistry, 2019)
Read-outs that look alike come from different tables or passages of the source.

Legend:
[1] = target: T1, hCA II (Homo sapiens, UniProt P00918); assay: hCA II inhibition, esterase activity method (4-nitrophenylacetate); type: biochemical
T1 construct: The hCA I and II isoenzymes used here were purified from human blood as previously described; from tissue; host or cells: human blood
Experimental: Different inhibitor concentrations were used and all compounds were tested in triplicate at each concentration used.
Human CA I and II isozymes were purified by one step chromatography technique and the activity of the effluents was determined by the hydratase method, using CO2 as substrate and further kinetic studies were performed using the esterase activity method, using 4-nitrophenyl acetate (NPA) as substrate.[21]

[2] = target: T2, hCA I (Homo sapiens, UniProt P00915); assay: hCA I inhibition, esterase activity method (4-nitrophenylacetate); type: biochemical; settings: for IC50: against hCA I
T2 construct: The hCA I and II isoenzymes used here were purified from human blood as previously described; from tissue; host or cells: human blood
Experimental: The enzymatic reaction contained 1.4 ml 0.05 M Tris-SO4 buffer (pH 7.4), 1 ml 3 mM 4-nitrophenylacetate, 0.5 ml H2O and 0.1 ml enzyme solution, in a total volume of 3.0 ml.[24] […] Different inhibitor concentrations were used and all compounds were tested in triplicate at each concentration used. […] An Activity% – [Inhibitor] graph was drawn for each inhibitor.[25] […] The catalytic activity of these enzymes was calculated from Lineweaver-Burk plots, as reported previously, and represent the mean from at least three different determinations.
The inhibitory effects of all the synthesised compounds were investigated for the first time against hCA isozymes: hCA I and hCA II. Human CA I and II isozymes were purified by one step chromatography technique and the activity of the effluents was determined by the hydratase method, using CO2 as substrate and further kinetic studies were performed using the esterase activity method, using 4-nitrophenyl acetate (NPA) as substrate.[21]

[3] = esterase method, 4-nitrophenylacetate, pH 7.4, 25 °C, mean from at least three determinations, read-out: Ki hCA I
[4] = esterase method, 4-nitrophenylacetate, pH 7.4, 25 °C, mean from at least three determinations, read-out: Ki hCA II

T2 sequence (P00915 whole entry): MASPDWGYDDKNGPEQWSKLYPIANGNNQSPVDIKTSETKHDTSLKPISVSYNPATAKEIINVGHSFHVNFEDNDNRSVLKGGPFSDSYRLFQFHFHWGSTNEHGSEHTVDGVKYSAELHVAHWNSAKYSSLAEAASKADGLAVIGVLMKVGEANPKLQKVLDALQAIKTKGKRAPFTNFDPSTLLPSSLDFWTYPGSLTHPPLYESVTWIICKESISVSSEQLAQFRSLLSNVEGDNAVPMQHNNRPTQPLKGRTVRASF

`COc1cc(/C=C/C(=O)c2ccc(N)cc2)cc(OC)c1OC` [Compound 1, (E)-1-(4-aminophenyl)-3-(3,4,5-trimethoxyphenyl)prop-2-en-1-one] showed a Ki [1] of 33.8 nM.
Work on `COc1cc(/C=C/C(=O)c2ccc(Br)cc2)cc(OC)c1OC` [Compound 2, (E)-1-(4-bromophenyl)-3-(3,4,5-trimethoxyphenyl)prop-2-en-1-one] yielded a Ki [2, 3] of 8.03 nM and a Ki [1, 4] of 17.1 nM.
With `COc1cc(/C=C/C(=O)c2ccc(C)cc2)cc(OC)c1OC` [Compound 3, (E)-1-p-tolyl-3-(3,4,5-trimethoxyphenyl)prop-2-en-1-one] the Ki [2, 3] was 16.9 nM and the Ki [1, 4] was 67.4 nM.
`COc1ccc(/C=C/C(=O)c2ccc(N)cc2)cc1OC` [Compound 4, (E)-1-(4-aminophenyl)-3-(3,4-dimethoxyphenyl)prop-2-en-1-one] showed a Ki [2, 3] of 9.71 nM and a Ki [1, 4] of 21.5 nM.
For `CN(C)c1ccc(/C=C/C(=O)c2ccc(O)cc2)cc1` [Compound 5, (E)-3-(4-(dimethylamino)phenyl)-1-(4-hydroxyphenyl)prop-2-en-1-one], the Ki [2] was 8.28 nM and the Ki [1] was 11.8 nM.
With `COc1cc(C2CC(c3ccc(N)cc3)=NN2C(N)=S)cc(OC)c1OC` (stereo not drawn) [Compound 6, 3-(4-Aminophenyl)-5-(3,4,5-trimethoxyphenyl)-4,5-dihydro-1H-pyrazole-1-carbothioamide] the IC50 [2] was 23.9 to 24.4 nM and the Ki [2, 3] was 12.2 nM.
`COc1cc(C2CC(c3ccc(Br)cc3)=NN2C(N)=S)cc(OC)c1OC` (stereo not drawn) [Compound 7, 3-(4-Bromophenyl)-5-(3,4,5-trimethoxyphenyl)-4,5-dihydro-1H-pyrazole-1-carbothioamide] showed a Ki [2, 3] of 12.6 nM.
Molecule `COc1cc(C2CC(c3ccc(C)cc3)=NN2C(N)=S)cc(OC)c1OC` (stereo not drawn) [Compound 8, 3-p-Tolyl-5-(3,4,5-trimethoxyphenyl)-4,5-dihydro-1H-pyrazole-1-carbothioamide] has a Ki [2, 3] of 11 nM and a Ki [1, 4] of 26.1 nM.
Work on `COc1ccc(C2CC(c3ccc(N)cc3)=NN2C(N)=S)cc1OC` (stereo not drawn) [Compound 9, 3-(4-Aminophenyl)-5-(3,4-dimethoxyphenyl)-4,5-dihydro-1H-pyrazole-1-carbothioamide] yielded a Ki [2] of 5.13 nM and a Ki [1, 4] of 20.4 nM.
For `CN(C)c1ccc(C2CC(c3ccc(O)cc3)=NN2C(N)=S)cc1` (stereo not drawn) [Compound 10, 5-(4-(Dimethylamino)phenyl)-3-(4-hydroxyphenyl)-4,5-dihydro-1H-pyrazole-1-carbothioamide], the IC50 [2] was 23.9 to 24.4 nM, the Ki [2, 3] was 11.9 nM and the “selectivity ratio (SR) hCA I versus hCA II” value ([2]; hCA I versus hCA II) was 3.46. The Ki [1, 4] was 41.3 nM and the melting point was 180 to 182 °C.
